Patent publication US20090317436A1, “COMPUTER DEVICES AND ACCESSORIES” (priority 2006, published 2009)

Tests used:
Assay type in all cases: cell-based
[1] = tested on: Staphylococcus aureus NCTC 6571; test: Lethal photosensitization of S. aureus by photosensitizer-gold nanoparticle mixtures (Examples 2-8, Table 2), viable counting; settings: for effect of diluting the gold nanoparticles on killing of S. aureus: 2 nm gold nanoparticles; for enhancement of lethal photosensitization compared with TB in the absence of nanogold: 15 nm nanogold
Method: Gold nanoparticles of approximately 15 nm in diameter (batches NN1 and NN2 above) were mixed with an equal volume of aqueous toluidine blue O (TB) and left at room temperature for 15 minutes. TB was used at a final concentration of 1, 5, 10, 20 or 50 μM.
100 μl of the TB-gold mixture was added to 100 μl of a suspension of Staphylococcus aureus NCTC 6571 in phosphate buffered saline (PBS) (adjusted to an optical density of 0.05), and samples were irradiated with a fluorescent white light (28 W) for 10 minutes. S. aureus+TB only, and S. aureus+PBS, without photosensitizer or nanogold were used as controls. The final concentration of nanogold used was 1×10^15 particles/ml.
After irradiation, the numbers of surviving bacteria were enumerated by viable counting.
The method of Example 2 was repeated using gold nanoparticles of 2 nm diameter (British Biocell International). The final concentration of nanogold used was 4×10^13 particles/ml. TB was used at a final concentration of 10, 20 or 50 μM.
Experiments were performed as for Example 3, with the following modifications: Prior to mixing with the photosensitizer, the gold nanoparticles were either left undiluted, or diluted 1 in 10 or 1 in 100 in sterile, distilled water. The nanoparticles were then added to TB (final concentration 20 μM).
The samples were then illuminated for 30 seconds using a fibre optic white light source (Schott KL200). The surviving bacteria were enumerated by viable counting as before.
Example 4 was repeated using methylene blue (MB; 20 μM) as the photosensitizer.
Example 5 was repeated using 2 nm gold nanoparticles (British Biocell International).
Example 6 was repeated using tin chlorin e6 (SnCe6; 20 μg/ml) as the photosensitizer. The illumination time was 10 minutes. […]

[2] = tested on: Staphylococcus aureus NCTC 6571; test: Lethal photosensitization of S. aureus by toluidine blue/gold nanoparticle mixture (Example 1), viable counting
Method: Gold nanoparticles (2.0 nm diameter; British Biocell International) in water (15×10^13 particles per ml) were mixed with an equal volume of an aqueous solution of toluidine blue O (40 μM) and left at room temperature for 15 minutes. 100 μl of the gold-TB solution was added to 100 μl of a suspension of Staphylococcus aureus NCTC 6571 in phosphate buffered saline (PBS) and this was irradiated with white light from an 18 W fluorescent white lamp for 10 minutes. Controls consisted of: • (i) TB (final concentration=10 μM) and bacteria, irradiated for the same period of time, • (ii) nanogold (diluted 1:1 with water) and bacteria, irradiated for the same period of time, • (iii) bacteria without TB or nanogold, not irradiated (“control”).
After irradiation, the number of surviving bacteria was determined by viable counting.

[3] = tested on: Staphylococcus aureus NCTC 6571; test: Lethal photosensitization of S. aureus using a different TBO-tiopronin-gold nanoparticle conjugate (Examples 6-7, Table 4); settings: white light 30 mins; free TBO control
[4] = tested on: Staphylococcus aureus NCTC 6571; test: Lethal photosensitization of S. aureus using TBO-tiopronin-gold nanoparticle conjugate (Examples 2-5, Table 3); settings: Example 4, any length of time
[5] = tested on: Staphylococcus aureus NCTC 6571; test: Lethal photosensitization of S. aureus by photosensitizer-gold nanoparticle mixtures (Examples 2-8, Table 2), viable counting; settings: Example 2

For `CN(C)c1ccc2nc3ccc(=[N+](C)C)cc-3sc2c1` [Methylene blue, methylene blue], the “effectiveness of combination against Staphylococcus aureus” value (shortened to “effectiveness of combination”) ([1]; 20 mM with 2 nm gold nanoparticles at 4×10^11 to 4×10^13 particles/ml) was “particularly effective”, the “effectiveness of combination” value ([1]; 20 mM with 15 nm gold nanoparticles at 1×10^13 to 1×10^15 particles/ml) was “particularly effective” and the “Result (% kill class)” value ([1]; Example 5, photosensitiser 20 mM, gold nanoparticles 15 nm, 1 × 10^13 particles/ml, fibre optic white light 30 seconds) was “**** (99-100% kill)”. The “Result (% kill class)” value ([1]; Example 5, photosensitiser 20 mM, gold nanoparticles 15 nm, 1 × 10^14 particles/ml, fibre optic white light 30 seconds) was “**** (99-100% kill)”, the “Result (% kill class)” value ([1]; Example 5, photosensitiser 20 mM, gold nanoparticles 15 nm, 1 × 10^15 particles/ml, fibre optic white light 30 seconds) was “**** (99-100% kill)” and the “effect of diluting the gold nanoparticles on killing of S. aureus” value ([1]; Example 6, MB 20 μM) was “enhanced the killing of S. aureus slightly”. For the same compound, the “Result (% kill class)” value ([1]; Example 6, photosensitiser 20 mM, gold nanoparticles 2 nm, 4 × 10^11 particles/ml, fibre optic white light 30 seconds) was “**** (99-100% kill)”, the “Result (% kill class)” value ([1]; Example 6, photosensitiser 20 mM, gold nanoparticles 2 nm, 4 × 10^12 particles/ml, fibre optic white light 30 seconds) was “**** (99-100% kill)” and the “Result (% kill class)” value ([1]; Example 6, photosensitiser 20 mM, gold nanoparticles 2 nm, 4 × 10^13 particles/ml, fibre optic white light 30 seconds) was “**** (99-100% kill)”.
For `Cc1cc2nc3ccc(N(C)C)cc3[s+]c2cc1N.[Cl-]` [Toluidine blue, toluidine blue O], the “% Kill” value ([2]; 18 W fluorescent white lamp 10 minutes, TB final 10 μM, 2.0 nm gold nanoparticles) was 93.7%, the “kill of the bacterial suspensions” value ([2]; preliminary experiments, 30 minutes light exposure) was “total kills” and the “S. aureus (cfu/ml)” value ([2]; surviving bacteria after 18 W fluorescent white lamp 10 minutes, TB final 10 μM, 2.0 nm gold nanoparticles) was 8570000 cfu/ml. The “effectiveness of combination” value ([1]; 20 mM with 2 nm gold nanoparticles at 4×10^13 particles/ml) was “particularly effective”, the “enhancement of lethal photosensitization” value ([1]; 2 nm nanogold particles, 10 μM or 50 μM TB) was “not when either 10 μM or 50 μM TB was used” and the “enhancement of lethal photosensitization” value ([1]; 2 nm nanogold particles, 20 μM TB) was “enhancement of lethal photosensitization was evident”. For the same compound, the “enhancement of lethal photosensitization compared with TB in the absence of nanogold” value ([1]; TB 1 μM) was “little enhancement”, the “enhancement of lethal photosensitization compared with TB in the absence of nanogold” value ([1]; TB 5, 10 and 20 μM) was “enhancement was evident” and the “enhancement of lethal photosensitization compared with TB in the absence of nanogold” value ([1]; TB 10 and 20 μM) was “Enhancement was greatest”. The “effectiveness of combination” value ([1]; 20 to 50 mM with 15 nm gold nanoparticles at 1×10^14 to 1×10^15 particles/ml) was “particularly effective”, the “Result (% kill class)” value ([1]; Example 2, photosensitiser 1 mM, gold nanoparticles 15 nm, 1 × 10^15 particles/ml, fluorescent white light (28 W) 10 minutes) was “— (less than 50% kill)” and the “Result (% kill class)” value ([1]; Example 2, photosensitiser 5 mM, gold nanoparticles 15 nm, 1 × 10^15 particles/ml, fluorescent white light (28 W) 10 minutes) was “* (50-90% kill)”. The “Result (% kill class)” value ([1]; Example 2, photosensitiser 20 mM, gold nanoparticles 15 nm, 1 × 10^15 particles/ml, fluorescent white light (28 W) 10 minutes) was “**** (99-100% kill)”, the “Result (% kill class)” value ([1]; Example 2, photosensitiser 50 mM, gold nanoparticles 15 nm, 1 × 10^15 particles/ml, fluorescent white light (28 W) 10 minutes) was “**** (99-100% kill)” and the “enhancement of lethal photosensitization” value ([1]; Example 2, with nanogold, TB 20 and 50 μM) was “enhancement was greatest”. The “Result (% kill class)” value ([1]; Example 3, photosensitiser 10 mM, gold nanoparticles 2 nm, 4 × 10^13 particles/ml, fluorescent white light (28 W) 10 minutes) was “* (50-90% kill)”, the “Result (% kill class)” value ([1]; Example 3, photosensitiser 20 mM, gold nanoparticles 2 nm, 4 × 10^13 particles/ml, fluorescent white light (28 W) 10 minutes) was “**** (99-100% kill)” and the “Result (% kill class)” value ([1]; Example 3, photosensitiser 50 mM, gold nanoparticles 2 nm, 4 × 10^13 particles/ml, fluorescent white light (28 W) 10 minutes) was “* (50-90% kill)”. The “enhancement compared with undiluted nanogold” value ([1]; Example 4, TB 20 μM, nanoparticles diluted 1 in 10, white light 30 seconds) was “greater enhancement”, the “Result (% kill class)” value ([1]; Example 4, photosensitiser 20 mM, gold nanoparticles 15 nm, 1 × 10^14 particles/ml, fibre optic white light 30 seconds) was “**** (99-100% kill)” and the “Result (% kill class)” value ([1]; Example 4, photosensitiser 20 mM, gold nanoparticles 15 nm, 1 × 10^15 particles/ml, fibre optic white light 30 seconds) was “*** (95-99% kill)”. The “kills of the organism (in words)” value [3] was “significant kills of the organism only at a concentration of 2.0 μm”, the “effect when irradiated with white light” value [4] was “no effect” and the “Result (% kill class)” value ([5]; photosensitiser 100 mM, gold nanoparticles 15 nm, 1 × 10^15 particles/ml, fluorescent white light (28 W) 10 minutes) was “** (90-95% kill)”. The “enhancement of lethal photosensitization” value ([5]; with nanogold, TB 10 or 100 μM) was “little enhancement”.
For `C=CC1=C(C)C2=CC3=NC(=C(CC(=O)[O-])C4=NC(=C(C)C4=C([O-])[O-])C=c4[n-]c(c(C)c4CC)=CC1=N2)C(CCC(=O)[O-])C3C.[H+].[Sn+4]` (stereo not shown) [Tin chlorine6, tin chlorin e6], the “effectiveness of combination” value ([1]; 20 mg/ml with 2 nm gold nanoparticles at 4×10^11 particles/ml) was “particularly effective”, the “effect of diluting the gold nanoparticles on killing of S. aureus” value ([1]; Example 7, SnCe6 20 μg/ml, illumination 10 minutes) was “enhanced the killing of S. aureus” and the “Result (% kill class)” value ([1]; Example 7, photosensitiser 20 m/ml, gold nanoparticles 2 nm, 4 × 10^11 particles/ml, illumination 10 minutes) was “*** (95-99% kill)”. The “Result (% kill class)” value ([1]; Example 7, photosensitiser 20 m/ml, gold nanoparticles 2 nm, 4 × 10^12 particles/ml, illumination 10 minutes) was “** (90-95% kill)” and the “Result (% kill class)” value ([1]; Example 7, photosensitiser 20 m/ml, gold nanoparticles 2 nm, 4 × 10^13 particles/ml, illumination 10 minutes) was “— (less than 50% kill)”.
nile blue sulphate was tested, and the “effectiveness of combination” value ([1]; 20 to 50 mM with 2 nm gold nanoparticles at 4×10^13 particles/ml) was “particularly effective”, the “Result (% kill class)” value ([1]; Example 8, photosensitiser 10 mM, gold nanoparticles 2 nm, 4 × 10^13 particles/ml, illuminated 30 minutes) was “*** (95-99% kill)” and the “Result (% kill class)” value ([1]; Example 8, photosensitiser 20 mM, gold nanoparticles 2 nm, 4 × 10^13 particles/ml, illuminated 30 minutes) was “**** (99-100% kill)”. For the same compound, the “Result (% kill class)” value ([1]; Example 8, photosensitiser 50 mM, gold nanoparticles 2 nm, 4 × 10^13 particles/ml, illuminated 30 minutes) was “**** (99-100% kill)”.
